The source made the active and inactive calls. The rule behind the calls is not given here.
Tests used:
Dopamine D4.2 (human) = experiment: PubChem AID 1788; details: MDS Pharma lead profiling panel, radioligand binding, at 10 µM, active compounds read high
[1] = system: Calcium channel N-type (rat); experiment: PubChem AID 1788; details: MDS Pharma lead profiling panel, radioligand binding, at 10 µM, active compounds read high
Glutamate Kainate (rat) = experiment: PubChem AID 1788; details: MDS Pharma lead profiling panel, radioligand binding, at 10 µM, active compounds read high
Adenosine A2 (human) = experiment: PubChem AID 1788; details: MDS Pharma lead profiling panel, radioligand binding, at 10 µM, active compounds read high
[2] = molecular target: Voltage-gated inwardly rectifying potassium channel KCNH2 (Homo sapiens) (UniProt Q12809); experiment: PubChem AID 1788; details: MDS Pharma lead profiling panel, radioligand binding; Potassium Channel hERG (human); at 10 µM; active compounds read high
Voltage-gated inwardly rectifying potassium channel KCNH2 (Homo sapiens), sequence (Q12809 whole entry, looked up): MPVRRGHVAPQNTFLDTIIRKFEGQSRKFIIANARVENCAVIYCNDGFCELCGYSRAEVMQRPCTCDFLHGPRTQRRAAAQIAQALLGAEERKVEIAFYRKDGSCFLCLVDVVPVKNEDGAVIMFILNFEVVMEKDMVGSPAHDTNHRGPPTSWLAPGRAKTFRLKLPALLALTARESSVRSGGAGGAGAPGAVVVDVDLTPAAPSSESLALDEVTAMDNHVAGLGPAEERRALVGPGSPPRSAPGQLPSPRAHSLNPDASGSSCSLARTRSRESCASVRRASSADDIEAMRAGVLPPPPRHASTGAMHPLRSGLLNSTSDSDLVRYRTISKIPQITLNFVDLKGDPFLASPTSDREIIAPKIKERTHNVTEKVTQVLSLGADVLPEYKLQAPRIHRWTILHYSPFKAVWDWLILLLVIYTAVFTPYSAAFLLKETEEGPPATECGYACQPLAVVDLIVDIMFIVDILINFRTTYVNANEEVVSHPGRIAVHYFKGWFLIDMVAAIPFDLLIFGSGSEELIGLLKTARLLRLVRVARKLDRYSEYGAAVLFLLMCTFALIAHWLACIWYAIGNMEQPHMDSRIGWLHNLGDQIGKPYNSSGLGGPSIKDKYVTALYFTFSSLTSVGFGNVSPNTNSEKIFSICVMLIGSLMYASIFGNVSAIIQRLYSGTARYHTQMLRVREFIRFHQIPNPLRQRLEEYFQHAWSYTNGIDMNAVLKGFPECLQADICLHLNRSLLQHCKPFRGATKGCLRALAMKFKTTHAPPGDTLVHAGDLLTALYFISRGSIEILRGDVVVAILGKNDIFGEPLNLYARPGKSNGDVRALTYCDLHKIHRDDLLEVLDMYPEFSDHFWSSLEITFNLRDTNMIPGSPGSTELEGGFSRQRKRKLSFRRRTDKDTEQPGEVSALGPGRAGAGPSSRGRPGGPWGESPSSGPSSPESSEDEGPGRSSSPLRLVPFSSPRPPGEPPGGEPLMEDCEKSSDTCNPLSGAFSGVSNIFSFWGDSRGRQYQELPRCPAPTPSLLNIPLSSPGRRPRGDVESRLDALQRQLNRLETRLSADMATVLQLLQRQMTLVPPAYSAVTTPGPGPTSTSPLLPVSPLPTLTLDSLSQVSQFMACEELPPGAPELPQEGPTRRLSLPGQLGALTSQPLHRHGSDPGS

Histamine H1 (human) = experiment: PubChem AID 1788; details: MDS Pharma lead profiling panel, radioligand binding, at 10 µM, active compounds read high
[3] = system: Calcium channel L-type (rat); experiment: PubChem AID 1788; details: MDS Pharma lead profiling panel, radioligand binding, dihydropyridine site, at 10 µM, active compounds read high
Adenosine A1 (human) = experiment: PubChem AID 1788; details: MDS Pharma lead profiling panel, radioligand binding, at 10 µM, active compounds read high
Endothelin ETA (human) = experiment: PubChem AID 1788; details: MDS Pharma lead profiling panel, radioligand binding, at 10 µM, active compounds read high
[4] = system: Transporter, Dopamine (DAT) (human); experiment: PubChem AID 1788; details: MDS Pharma lead profiling panel, radioligand binding, at 10 µM, active compounds read high
[5] = system: Sodium Channel, Site 2 (rat); experiment: PubChem AID 1788; details: MDS Pharma lead profiling panel, radioligand binding, at 10 µM, active compounds read high
[6] = system: Transporter, Serotonin (5-Hydroxytryptamine) (SERT) (human); experiment: PubChem AID 1788; details: MDS Pharma lead profiling panel, radioligand binding, at 10 µM, active compounds read high
Adrenergic a1D (human) = experiment: PubChem AID 1788; details: MDS Pharma lead profiling panel, radioligand binding, at 10 µM, active compounds read high
[7] = molecular target: Kappa-type opioid receptor (Homo sapiens) (UniProt P41145); experiment: PubChem AID 1788; details: MDS Pharma lead profiling panel, radioligand binding; Opiate k (OP2, KOP) (human); at 10 µM; active compounds read high
Kappa-type opioid receptor (Homo sapiens), sequence (P41145 whole entry, looked up): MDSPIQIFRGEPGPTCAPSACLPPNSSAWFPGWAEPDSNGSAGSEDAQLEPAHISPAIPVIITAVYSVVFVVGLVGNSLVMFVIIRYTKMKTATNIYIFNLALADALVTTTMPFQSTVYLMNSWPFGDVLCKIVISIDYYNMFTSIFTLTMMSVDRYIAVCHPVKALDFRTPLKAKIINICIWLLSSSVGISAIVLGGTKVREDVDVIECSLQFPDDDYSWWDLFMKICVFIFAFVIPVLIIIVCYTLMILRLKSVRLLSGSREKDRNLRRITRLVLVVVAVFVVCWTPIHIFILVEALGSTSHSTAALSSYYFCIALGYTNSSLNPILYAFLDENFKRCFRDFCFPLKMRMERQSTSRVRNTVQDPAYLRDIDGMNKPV

[8] = system: Imidazoline I2 central (rat); experiment: PubChem AID 1788; details: MDS Pharma lead profiling panel, radioligand binding, at 10 µM, active compounds read high
[9] = molecular target: Beta-2 adrenergic receptor (Homo sapiens) (UniProt P07550); experiment: PubChem AID 1788; details: MDS Pharma lead profiling panel, radioligand binding; Adrenergic b2 (human); at 10 µM; active compounds read high
Beta-2 adrenergic receptor (Homo sapiens), sequence (P07550 whole entry, looked up): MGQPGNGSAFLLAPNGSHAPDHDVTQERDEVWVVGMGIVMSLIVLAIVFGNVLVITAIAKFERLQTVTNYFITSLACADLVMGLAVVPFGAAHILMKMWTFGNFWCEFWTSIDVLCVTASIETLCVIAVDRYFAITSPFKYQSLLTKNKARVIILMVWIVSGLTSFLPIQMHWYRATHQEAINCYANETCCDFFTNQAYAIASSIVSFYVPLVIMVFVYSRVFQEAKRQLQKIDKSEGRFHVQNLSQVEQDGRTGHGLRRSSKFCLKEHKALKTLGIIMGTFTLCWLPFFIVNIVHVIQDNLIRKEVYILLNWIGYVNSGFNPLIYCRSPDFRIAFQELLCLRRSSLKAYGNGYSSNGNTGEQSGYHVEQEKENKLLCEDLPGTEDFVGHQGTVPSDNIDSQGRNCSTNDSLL

Glutamate NMDA (rat) = experiment: PubChem AID 1788; details: MDS Pharma lead profiling panel, radioligand binding, at 10 µM, active compounds read high
Adenosine A3 (human) = experiment: PubChem AID 1788; details: MDS Pharma lead profiling panel, radioligand binding, at 10 µM, active compounds read high
Purinergic P2Y (rat) = experiment: PubChem AID 1788; details: MDS Pharma lead profiling panel, radioligand binding, at 10 µM, active compounds read high
Sigma s2 (rat) = experiment: PubChem AID 1788; details: MDS Pharma lead profiling panel, radioligand binding, at 10 µM, active compounds read high
Bradykinin B2 (human) = experiment: PubChem AID 1788; details: MDS Pharma lead profiling panel, radioligand binding, at 10 µM, active compounds read high
[10] = system: G protein-coupled receptor GPR103 (human); experiment: PubChem AID 1788; details: MDS Pharma lead profiling panel, radioligand binding, at 10 µM, active compounds read high
[11] = system: Transporter, Norepinephrine (NET) (human); experiment: PubChem AID 1788; details: MDS Pharma lead profiling panel, radioligand binding, at 10 µM, active compounds read high
Bradykinin B1 (human) = experiment: PubChem AID 1788; details: MDS Pharma lead profiling panel, radioligand binding, at 10 µM, active compounds read high
[12] = system: Androgen (testosterone) AR (rat); experiment: PubChem AID 1788; details: MDS Pharma lead profiling panel, radioligand binding, at 10 µM, active compounds read high
PubChem AID 1788 = details: MDS Pharma lead profiling panel, radioligand binding; GABAA central (rat), Muscimol site; at 10 µM; active compounds read high
Adrenergic a1A (rat) = experiment: PubChem AID 1788; details: MDS Pharma lead profiling panel, radioligand binding, at 10 µM, active compounds read high
[13] = molecular target: Glucocorticoid receptor (Homo sapiens) (UniProt P04150); experiment: PubChem AID 1788; details: MDS Pharma lead profiling panel, radioligand binding, at 10 µM, active compounds read high
Glucocorticoid receptor (Homo sapiens), sequence (P04150 whole entry, looked up): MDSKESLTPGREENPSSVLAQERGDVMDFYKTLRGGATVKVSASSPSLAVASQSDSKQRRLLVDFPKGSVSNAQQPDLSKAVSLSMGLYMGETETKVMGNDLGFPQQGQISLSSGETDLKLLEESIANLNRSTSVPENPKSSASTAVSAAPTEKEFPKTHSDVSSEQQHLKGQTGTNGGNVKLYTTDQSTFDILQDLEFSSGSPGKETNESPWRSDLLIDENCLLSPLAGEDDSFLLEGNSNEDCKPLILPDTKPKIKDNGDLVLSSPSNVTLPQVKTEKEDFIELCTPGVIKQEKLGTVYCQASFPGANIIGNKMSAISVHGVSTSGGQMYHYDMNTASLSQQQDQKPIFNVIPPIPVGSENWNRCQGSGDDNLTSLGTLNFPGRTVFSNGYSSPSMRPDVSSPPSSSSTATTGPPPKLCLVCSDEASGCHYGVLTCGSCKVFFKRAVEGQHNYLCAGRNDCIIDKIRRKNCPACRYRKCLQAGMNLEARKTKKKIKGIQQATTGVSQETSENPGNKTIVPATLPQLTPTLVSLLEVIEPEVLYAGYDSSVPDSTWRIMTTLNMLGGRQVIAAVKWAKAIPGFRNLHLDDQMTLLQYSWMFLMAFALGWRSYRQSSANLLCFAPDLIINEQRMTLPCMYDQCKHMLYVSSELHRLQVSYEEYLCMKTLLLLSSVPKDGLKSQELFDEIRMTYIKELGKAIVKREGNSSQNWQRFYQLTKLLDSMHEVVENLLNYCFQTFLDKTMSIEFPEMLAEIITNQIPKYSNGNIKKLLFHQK

[14] = molecular target: D(2) dopamine receptor (Homo sapiens) (UniProt P14416); experiment: PubChem AID 1788; details: MDS Pharma lead profiling panel, radioligand binding; Dopamine D2S (human); at 10 µM; active compounds read high
D(2) dopamine receptor (Homo sapiens), sequence (P14416 whole entry, looked up): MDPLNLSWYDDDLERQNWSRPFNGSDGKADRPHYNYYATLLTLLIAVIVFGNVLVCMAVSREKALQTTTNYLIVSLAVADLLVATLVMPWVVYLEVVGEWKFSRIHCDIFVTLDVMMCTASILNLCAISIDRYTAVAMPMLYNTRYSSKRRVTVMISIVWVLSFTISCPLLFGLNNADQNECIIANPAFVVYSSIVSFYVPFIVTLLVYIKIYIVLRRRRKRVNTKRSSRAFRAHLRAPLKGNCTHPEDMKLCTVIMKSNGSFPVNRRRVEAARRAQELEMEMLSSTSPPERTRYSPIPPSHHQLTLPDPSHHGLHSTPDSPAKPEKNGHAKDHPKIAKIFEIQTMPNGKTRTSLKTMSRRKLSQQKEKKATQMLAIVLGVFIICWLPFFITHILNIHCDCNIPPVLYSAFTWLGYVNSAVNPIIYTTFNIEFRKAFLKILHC

Adrenergic b1 (human) = experiment: PubChem AID 1788; details: MDS Pharma lead profiling panel, radioligand binding, at 10 µM, active compounds read high
[15] = molecular target: Muscarinic acetylcholine receptor M3 (Homo sapiens) (UniProt P20309); experiment: PubChem AID 1788; details: MDS Pharma lead profiling panel, radioligand binding, at 10 µM, active compounds read high
Muscarinic acetylcholine receptor M3 (Homo sapiens), sequence (P20309 whole entry, looked up): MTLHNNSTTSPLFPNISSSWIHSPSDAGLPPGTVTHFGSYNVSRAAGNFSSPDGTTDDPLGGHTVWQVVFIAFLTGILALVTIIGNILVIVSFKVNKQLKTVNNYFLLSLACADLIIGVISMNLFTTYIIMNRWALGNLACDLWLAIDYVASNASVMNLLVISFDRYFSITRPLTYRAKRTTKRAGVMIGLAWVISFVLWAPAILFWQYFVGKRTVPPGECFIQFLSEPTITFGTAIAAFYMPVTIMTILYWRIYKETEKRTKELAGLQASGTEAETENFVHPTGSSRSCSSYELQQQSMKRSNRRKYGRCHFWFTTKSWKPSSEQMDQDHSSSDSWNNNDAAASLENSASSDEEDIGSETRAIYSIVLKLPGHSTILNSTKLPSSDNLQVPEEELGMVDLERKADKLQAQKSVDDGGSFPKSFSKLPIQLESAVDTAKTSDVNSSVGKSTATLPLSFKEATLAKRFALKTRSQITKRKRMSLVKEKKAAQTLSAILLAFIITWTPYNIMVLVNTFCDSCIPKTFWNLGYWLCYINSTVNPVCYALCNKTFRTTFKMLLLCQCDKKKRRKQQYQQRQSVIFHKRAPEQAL

Sigma s1 (human) = experiment: PubChem AID 1788; details: MDS Pharma lead profiling panel, radioligand binding, at 10 µM, active compounds read high
[16] = system: Nicotinic Acetylcholine (human); experiment: PubChem AID 1788; details: MDS Pharma lead profiling panel, radioligand binding, at 10 µM, active compounds read high
[17] = system: Leukotriene Cysteinyl CysLT1 (human); experiment: PubChem AID 1788; details: MDS Pharma lead profiling panel, radioligand binding, at 10 µM, active compounds read high

Compound: CCOC(=O)N1CCC(NCCNC(=O)c2ccccc2C)CC1
- inhibition (Dopamine D4.2 (human)): 52% (inactive)
- inhibition [1]: 8% (inactive)
- inhibition (Glutamate Kainate (rat)): 9% (inactive)
- inhibition (Adenosine A2 (human)): 7% (inactive)
- inhibition [2]: 1% (inactive)
- inhibition (Histamine H1 (human)): -4% (inactive)
- inhibition [3]: -8% (inactive)
- inhibition (Adenosine A1 (human)): -4% (inactive)
- inhibition (Endothelin ETA (human)): 8% (inactive)
- inhibition [4]: -1% (inactive)
- inhibition [5]: -7% (inactive)
- inhibition [6]: -5% (inactive)
- inhibition (Adrenergic a1D (human)): 28% (inactive)
- inhibition [7]: -2% (inactive)
- inhibition [8]: 19% (inactive)
- inhibition [9]: -1% (inactive)
- inhibition (Glutamate NMDA (rat); Glycine site): -11% (inactive)
- inhibition (Glutamate NMDA (rat); Phencyclidine site): 7% (inactive)
- inhibition (Glutamate NMDA (rat); agonism site): 13% (inactive)
- inhibition (Adenosine A3 (human)): 7% (inactive)
- inhibition (Purinergic P2Y (rat)): -2% (inactive)
- inhibition (Sigma s2 (rat)): 44% (inactive)
- inhibition (Bradykinin B2 (human)): 9% (inactive)
- inhibition [10]: 9% (inactive)
- inhibition [11]: 1% (inactive)
- inhibition (Bradykinin B1 (human)): 8% (inactive)
- inhibition [12]: -2% (inactive)
- inhibition (PubChem AID 1788): 7% (inactive)
- inhibition (Adrenergic a1A (rat)): 53%
- inhibition [13]: -8% (inactive)
- inhibition [14]: 29% (inactive)
- inhibition (Adrenergic b1 (human)): 4% (inactive)
- inhibition [15]: -14% (inactive)
- inhibition (Sigma s1 (human)): 69% (inactive)
- inhibition [16]: 2% (inactive)
- inhibition [17]: 5% (inactive)

Source: PubChem BioAssay AID1788 (Vanderbilt High Throughput Screening Facility, 2009)
